Measurements from patent US6545155B2, “Fused heteroaromatic glucokinase activators” (Hoffmann-La Roche Inc., priority 2000, dated 2003).

Test system: C57BL/6J mice
Test: Glucokinase activator in vivo screen protocol (blood glucose after oral dosing)
Conditions: administered orally, 50 mg/kg, C57BL/6J mice fasted two hours, blood glucose vs vehicle over six hours post dose
Method: (Glucokinase Activator in Vivo Screen Protocol
C57BL/6J mice are orally dosed via gavage with Glucokinase (GK) activator at 50 mg/kg body weight following a two hour fasting period. Blood glucose determinations are made five times during the six hour post-dose study period.
Mice (n=6) are weighed and fasted for a two hour period prior to oral treatment. GK activators are formulated at 6.76 mg/ml in Gelucire vehicle (Ethanol:Gelucire44/14:PEG400q.s. 4:66:30 v/w/v. Mice are dosed orally with 7.5 μL formulation per gram of body weight to equal a 50 mg/kg dose. Immediately prior to dosing, a pre dose (time zero) blood glucose reading is acquired by snipping off a small portion of the animals tail (˜1 mm) and collecting 15 μL blood into a heparinized capillary tube for analysis. Following GK activator administration, additional blood glucose readings are taken at 1, 2, 4, and 6 hours post dose from the same tail wound. Results are interpreted by comparing the mean blood glucose values of six vehicle treated mice with six GK activator treated mice over the six hour study duration.

Row | Structure (SMILES) | glucokinase activator in vivo activity
1 | CS(=O)(=O)c1ccc(C(CC2CCCC2)C(=O)Nc2ccc3ccccc3n2)cc1Cl (stereo not drawn) [Example 22, 2-(3-Chloro-4-methanesulfonyl-phenyl)-3-cyclopentyl-N-quinolin-2-yl-propionamide] | excellent glucokinase activator in vivo activity
2 | CS(=O)(=O)c1ccc([C@@H](CC2CCCC2)C(=O)Nc2nc3ccccc3s2)cc1Cl [Example 19, N-Benzothiazol-2-yl-2(R)-(3-chloro-4-methanesulfonyl-phenyl)-3-cyclopentyl-propionamide] | excellent glucokinase activator in vivo activity
3 | CS(=O)(=O)c1ccc(C(CC2CCCC2)C(=O)Nc2nc3ccccc3[nH]2)cc1Cl (stereo not drawn) [Example 20, N-(1H-Benzoimidazol-2-yl)-2-(3-chloro-4-methanesulfonyl-phenyl)-3-cyclopentyl-propionamide] | excellent glucokinase activator in vivo activity
